We go through five compounds from patent US20260166128A1, “HUMAN AMYLIN ANALOG, AND DERIVATIVE THEREOF AND USE THEREOF” (priority 2022, published 2026).

This test addresses T1, human amylin receptor (Homo sapiens, UniProt O60896+P30988).
T1 construct: host or cells: CHO-K1/Ga15/AMY3 cells, further stably transfected with a CRE-luciferase plasmid
T1 sequence (P30988 25-474): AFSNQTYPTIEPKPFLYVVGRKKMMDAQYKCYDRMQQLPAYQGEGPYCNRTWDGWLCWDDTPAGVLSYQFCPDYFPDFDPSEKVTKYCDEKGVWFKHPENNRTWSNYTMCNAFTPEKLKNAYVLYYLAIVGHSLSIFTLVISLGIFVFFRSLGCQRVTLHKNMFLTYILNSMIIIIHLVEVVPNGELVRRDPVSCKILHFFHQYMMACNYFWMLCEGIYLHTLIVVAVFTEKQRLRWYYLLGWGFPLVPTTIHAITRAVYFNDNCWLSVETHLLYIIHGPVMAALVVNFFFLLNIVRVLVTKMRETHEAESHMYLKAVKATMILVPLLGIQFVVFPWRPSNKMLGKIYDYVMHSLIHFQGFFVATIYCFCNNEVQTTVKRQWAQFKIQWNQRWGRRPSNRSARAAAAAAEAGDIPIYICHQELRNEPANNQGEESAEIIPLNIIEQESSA
T1 sequence (O60896 24-148 partner): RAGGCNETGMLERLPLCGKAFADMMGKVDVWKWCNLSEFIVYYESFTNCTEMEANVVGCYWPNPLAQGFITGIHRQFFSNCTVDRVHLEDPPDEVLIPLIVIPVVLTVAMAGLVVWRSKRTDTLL
The test can be described thus: Luciferase assay of amylin derivatives in amylin receptor/CRE-luc CHO cell line. It counts as cell-based. Conditions: 24 hours incubation, F12 medium containing 10% FBS.

Setting [1] is: CHO-K1/Ga15/AMY3 CRE-luc cells, read-out: EC50.

Read-outs that look alike come from different tables or passages of the source. Numbered stars: 1 amine (or outer) side, 2 acyl side, 3 side chain; on linkers, the order of the positions; unused ones are H or OH. Bridge positions count the residues as written; N and C are the ends. Square brackets hold non-standard residues; d marks the D form. Side chains are listed from the residue outwards. Peptide text beside a SMILES is read from it. * marks the point of attachment. C20 diacid = O=C(O)CCCCCCCCCCCCCCCCCCC(=O)*; C18 diacid = O=C(O)CCCCCCCCCCCCCCCCC(=O)*; γGlu = O=C(O)[C@H](CCC(=O)[*:2])N[*:1]; Hyp = O=C(O)[C@@H]1C[C@@H](O)CN1; Orn = NCCC[C@H](N)C(=O)O; Dab = NCC[C@H](N)C(=O)O; AEEA = NCCOCCOCC(=O)O

Procedure: The experiment was intended to detect the activity or efficacy of the amylin derivatives on a human amylin receptor in vitro by luciferase assay.
50 μL of growth medium (F12 medium containing 10% FBS) was added into each well of a white 96-well plate, and the stably transfected amylin/CRE-lue CHO cells were inoculated into the white 96-well plate at a density of about 20,000 cells/well for activity determination.

Compound `CC[C@H](C)[C@H](NC(=O)[C@@H]1CCCN1C(=O)CNC(=O)[C@H](CC(C)C)NC(=O)[C@H](CC(N)=O)NC(=O)[C@H](CC(N)=O)NC(=O)[C@H](CO)NC(=O)[C@H](CCCCNC(=O)COCCOCCNC(=O)COCCOCCNC(=O)CC[C@H](NC(=O)CCCCCCCCCCCCCCCCC(=O)O)C(=O)O)NC(=O)[C@H](Cc1c[nH]cn1)NC(=O)[C@H](CCCNC(=N)N)NC(=O)[C@H](CC(C)C)NC(=O)[C@H](Cc1ccccc1)NC(=O)[C@H](CC(=O)O)NC(=O)[C@H](C)NC(=O)[C@H](CC(C)C)NC(=O)[C@H](CCCNC(=N)N)NC(=O)[C@H](CCC(N)=O)NC(=O)[C@@H](NC(=O)[C@H](C)NC(=O)[C@@H]1CSSC[C@H](NC(=O)[C@@H](N)CCCNC(=N)N)C(=O)N[C@@H](CC(N)=O)C(=O)N[C@@H]([C@@H](C)O)C(=O)N[C@@H](C)C(=O)N[C@@H]([C@@H](C)O)C(=O)N1)[C@@H](C)O)C(=O)N[C@@H](CC(C)C)C(=O)N1CCC[C@H]1C(=O)N1CCC[C@H]1C(=O)N[C@H](C(=O)N[C@@H](CC(N)=O)C(=O)N[C@H](C(=O)NCC(=O)N[C@@H](CO)C(=O)N[C@@H](CC(N)=O)C(=O)N[C@H](C(=O)N1C[C@H](O)C[C@H]1C(N)=O)[C@@H](C)O)C(C)C)[C@@H](C)O` [PD101] (H-RCNTATCATQRLADFLRHK([AEEA-AEEA-γGlu-C18 diacid])SNNLGPILPPTNVGSNT[Hyp]-NH2; disulfide 2-7) returned an EC50 (EC50, CHO-K1/Ga15/AMY3 CRE-luc cells) of 0.012 nM. With `CC[C@H](C)[C@H](NC(=O)[C@@H]1CCCN1C(=O)[C@H](CCCCNC(=O)CC[C@H](NC(=O)CCCCCCCCCCCCCCCCCCC(=O)O)C(=O)O)NC(=O)[C@H](CC(C)C)NC(=O)[C@H](CC(N)=O)NC(=O)[C@H](CC(N)=O)NC(=O)[C@H](CO)NC(=O)[C@H](CO)NC(=O)[C@H](Cc1c[nH]cn1)NC(=O)[C@H](CCCNC(=N)N)NC(=O)[C@H](CC(C)C)NC(=O)[C@H](Cc1ccccc1)NC(=O)[C@H](CC(=O)O)NC(=O)[C@H](C)NC(=O)[C@H](CC(C)C)NC(=O)[C@H](CCCNC(=N)N)NC(=O)[C@H](CCC(N)=O)NC(=O)[C@@H](NC(=O)[C@H](C)NC(=O)[C@@H]1CSSC[C@H](NC(=O)[C@@H](N)CCN)C(=O)N[C@@H](CC(N)=O)C(=O)N[C@@H]([C@@H](C)O)C(=O)N[C@@H](C)C(=O)N[C@@H]([C@@H](C)O)C(=O)N1)[C@@H](C)O)C(=O)N[C@@H](CC(C)C)C(=O)N1CCC[C@H]1C(=O)N1CCC[C@H]1C(=O)N[C@H](C(=O)N[C@@H](CC(N)=O)C(=O)N[C@H](C(=O)NCC(=O)N[C@@H](CO)C(=O)N[C@@H](CC(N)=O)C(=O)N[C@H](C(=O)N1C[C@H](O)C[C@H]1C(N)=O)[C@@H](C)O)C(C)C)[C@@H](C)O` [PD074] (H-[Dab]CNTATCATQRLADFLRHSSNNLK([γGlu-C20 diacid])PILPPTNVGSNT[Hyp]-NH2; disulfide 2-7), the EC50 under setting [1] turned out to be 0.066 nM. Same read-out and setting: in the case of `CC[C@H](C)[C@H](NC(=O)[C@@H]1CCCN1C(=O)CNC(=O)[C@H](CC(C)C)NC(=O)[C@H](CCCCNC(=O)COCCOCCNC(=O)CC[C@H](NC(=O)CCCCCCCCCCCCCCCCC(=O)O)C(=O)O)NC(=O)[C@H](CC(N)=O)NC(=O)[C@H](CO)NC(=O)[C@H](CO)NC(=O)[C@H](Cc1c[nH]cn1)NC(=O)[C@H](CCCNC(=N)N)NC(=O)[C@H](CC(C)C)NC(=O)[C@H](Cc1ccccc1)NC(=O)[C@H](CC(=O)O)NC(=O)[C@H](C)NC(=O)[C@H](CC(C)C)NC(=O)[C@H](CCCNC(=N)N)NC(=O)[C@H](CCC(N)=O)NC(=O)[C@@H](NC(=O)[C@H](C)NC(=O)[C@@H]1CSSC[C@H](NC(=O)[C@@H](N)CCCNC(=N)N)C(=O)N[C@@H](CC(N)=O)C(=O)N[C@@H]([C@@H](C)O)C(=O)N[C@@H](C)C(=O)N[C@@H]([C@@H](C)O)C(=O)N1)[C@@H](C)O)C(=O)N[C@@H](CC(C)C)C(=O)N1CCC[C@H]1C(=O)N1CCC[C@H]1C(=O)N[C@H](C(=O)N[C@@H](CC(N)=O)C(=O)N[C@H](C(=O)NCC(=O)N[C@@H](CO)C(=O)N[C@@H](CC(N)=O)C(=O)N[C@H](C(=O)N1C[C@H](O)C[C@H]1C(N)=O)[C@@H](C)O)C(C)C)[C@@H](C)O` [PD113] (H-RCNTATCATQRLADFLRHSSNK([AEEA-γGlu-C18 diacid])LGPILPPTNVGSNT[Hyp]-NH2; disulfide 2-7) it was 0.017 nM; in that of `CC[C@H](C)[C@H](NC(=O)[C@@H]1CCCN1C(=O)CNC(=O)[C@H](CC(C)C)NC(=O)[C@H](CC(N)=O)NC(=O)[C@H](CC(N)=O)NC(=O)[C@H](CO)NC(=O)[C@H](CCCCNC(=O)CC[C@H](NC(=O)CCCCCCCCCCCCCCCCC(=O)O)C(=O)O)NC(=O)[C@H](Cc1c[nH]cn1)NC(=O)[C@H](CCCNC(=N)N)NC(=O)[C@H](CC(C)C)NC(=O)[C@H](Cc1ccccc1)NC(=O)[C@H](CC(=O)O)NC(=O)[C@H](C)NC(=O)[C@H](CC(C)C)NC(=O)[C@H](CCCNC(=N)N)NC(=O)[C@H](CCC(N)=O)NC(=O)[C@@H](NC(=O)[C@H](C)NC(=O)[C@@H]1CSSC[C@H](NC(=O)[C@@H](N)CCCNC(=N)N)C(=O)N[C@@H](CC(N)=O)C(=O)N[C@@H]([C@@H](C)O)C(=O)N[C@@H](C)C(=O)N[C@@H]([C@@H](C)O)C(=O)N1)[C@@H](C)O)C(=O)N[C@@H](CC(C)C)C(=O)N1CCC[C@H]1C(=O)N1CCC[C@H]1C(=O)N[C@H](C(=O)N[C@@H](CC(N)=O)C(=O)N[C@H](C(=O)NCC(=O)N[C@@H](CO)C(=O)N[C@@H](CC(N)=O)C(=O)N[C@H](C(=O)N1C[C@H](O)C[C@H]1C(N)=O)[C@@H](C)O)C(C)C)[C@@H](C)O` [PD100] (H-RCNTATCATQRLADFLRHK([γGlu-C18 diacid])SNNLGPILPPTNVGSNT[Hyp]-NH2; disulfide 2-7), 0.06 nM; in that of `CC[C@H](C)[C@H](NC(=O)[C@@H]1CCCN1C(=O)[C@H](CCCCNC(=O)CC[C@H](NC(=O)CCCCCCCCCCCCCCCCCCC(=O)O)C(=O)O)NC(=O)[C@H](CC(C)C)NC(=O)[C@H](CC(N)=O)NC(=O)[C@H](CC(N)=O)NC(=O)[C@H](CO)NC(=O)[C@H](CO)NC(=O)[C@H](Cc1c[nH]cn1)NC(=O)[C@H](CCCNC(=N)N)NC(=O)[C@H](CC(C)C)NC(=O)[C@H](Cc1ccccc1)NC(=O)[C@H](CC(=O)O)NC(=O)[C@H](C)NC(=O)[C@H](CC(C)C)NC(=O)[C@H](CCCNC(=N)N)NC(=O)[C@H](CCC(N)=O)NC(=O)[C@@H](NC(=O)[C@H](C)NC(=O)[C@@H]1CSSC[C@H](NC(=O)[C@@H](N)CCCN)C(=O)N[C@@H](CC(N)=O)C(=O)N[C@@H]([C@@H](C)O)C(=O)N[C@@H](C)C(=O)N[C@@H]([C@@H](C)O)C(=O)N1)[C@@H](C)O)C(=O)N[C@@H](CC(C)C)C(=O)N1CCC[C@H]1C(=O)N1CCC[C@H]1C(=O)N[C@H](C(=O)N[C@@H](CC(N)=O)C(=O)N[C@H](C(=O)NCC(=O)N[C@@H](CO)C(=O)N[C@@H](CC(N)=O)C(=O)N[C@H](C(=O)N1C[C@H](O)C[C@H]1C(N)=O)[C@@H](C)O)C(C)C)[C@@H](C)O` [PD075] (H-[Orn]CNTATCATQRLADFLRHSSNNLK([γGlu-C20 diacid])PILPPTNVGSNT[Hyp]-NH2; disulfide 2-7), 0.048 nM.

One may read the EC50 as the midpoint of the concentration-response curve.
